Target: T1, SIRT1 (Homo sapiens, UniProt Q96EB6)
T1 sequence (Q96EB6 1-747): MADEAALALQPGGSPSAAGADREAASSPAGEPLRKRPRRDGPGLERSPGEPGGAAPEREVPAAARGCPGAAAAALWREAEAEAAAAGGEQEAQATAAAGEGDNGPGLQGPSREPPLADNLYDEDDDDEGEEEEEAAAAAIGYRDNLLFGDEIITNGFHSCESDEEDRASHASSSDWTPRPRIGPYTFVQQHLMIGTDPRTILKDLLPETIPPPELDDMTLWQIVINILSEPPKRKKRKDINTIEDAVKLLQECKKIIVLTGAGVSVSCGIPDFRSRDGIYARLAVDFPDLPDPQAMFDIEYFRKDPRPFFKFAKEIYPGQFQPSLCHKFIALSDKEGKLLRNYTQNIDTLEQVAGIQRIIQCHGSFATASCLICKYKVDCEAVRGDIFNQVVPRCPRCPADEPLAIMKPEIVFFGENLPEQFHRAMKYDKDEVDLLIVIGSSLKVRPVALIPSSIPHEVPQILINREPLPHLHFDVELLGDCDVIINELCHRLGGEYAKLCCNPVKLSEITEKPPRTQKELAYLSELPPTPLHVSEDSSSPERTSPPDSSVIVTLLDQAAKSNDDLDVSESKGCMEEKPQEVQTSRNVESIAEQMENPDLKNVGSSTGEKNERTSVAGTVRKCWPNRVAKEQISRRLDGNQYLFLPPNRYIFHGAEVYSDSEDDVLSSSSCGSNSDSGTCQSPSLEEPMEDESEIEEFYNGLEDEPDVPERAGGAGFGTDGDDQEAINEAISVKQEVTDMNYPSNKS
Experiment: Mass spectrometry based SIRT1 deacetylase activation assay (acetylated p53-derived peptide substrate)
Assay type: biochemical

EC1.5	Fold Act. (percent maximum fold activation)	Compound
B (EC1.5 1-25 uM)	A (Fold activation >200%)	O=C(Nc1cccc2[nH]c(-c3cccc(C(F)(F)F)c3)nc12)c1ccccn1 [Compound 333]
B (EC1.5 1-25 uM)	A (Fold activation >200%)	O=C(Nc1cccc2[nH]c(-c3cccc(C(F)(F)F)c3)nc12)c1cccnc1 [Compound 334]
B (EC1.5 1-25 uM)	A (Fold activation >200%)	O=C(Nc1cccc2[nH]c(-c3cccc(C(F)(F)F)c3)nc12)c1cnccn1 [Compound 335]
A (EC1.5<1.0 uM)	A (Fold activation >200%)	O=C(Nc1ccc[n+]([O-])c1)c1cccc2[nH]c(-c3ccccc3C(F)(F)F)nc12 [Compound 336]
A (EC1.5<1.0 uM)	A (Fold activation >200%)	O=C(Nc1cc[n+]([O-])cc1)c1cccc2[nH]c(-c3ccccc3C(F)(F)F)nc12 [Compound 337]
A (EC1.5<1.0 uM)	A (Fold activation >200%)	O=C(Nc1cc[n+]([O-])cc1)c1cccc2[nH]c(-c3ccc(Cl)cc3C(F)(F)F)nc12 [Compound 338]
A (EC1.5<1.0 uM)	A (Fold activation >200%)	O=C(Nc1nccs1)c1cccc2[nH]c(-c3ccc(OCCN4CCOCC4)cc3)nc12 [Compound 339]
A (EC1.5<1.0 uM)	A (Fold activation >200%)	O=C(Nc1nccs1)c1cccc2[nH]c(-c3ccccc3OCCN3CCOCC3)nc12 [Compound 340]
A (EC1.5<1.0 uM)	A (Fold activation >200%)	O=C(Nc1nccs1)c1cncc2[nH]c(-c3ccccc3C(F)(F)F)nc12 [Compound 341, N-(thiazol-2-yl)-2-(2-(trifluoromethyl)phenyl)-3H-imidazo[4,5-c]pyridine-7-carboxamide]
A (EC1.5<1.0 uM)	A (Fold activation >200%)	O=C(Nc1ccccn1)c1cccc2[nH]c(-c3ccc(-c4nnn[nH]4)cc3)nc12 [Compound 342]
A (EC1.5<1.0 uM)	A (Fold activation >200%)	Cc1cnc(NC(=O)c2cccc3[nH]c(-c4ccccc4C(F)(F)F)nc23)s1 [Compound 343]
A (EC1.5<1.0 uM)	A (Fold activation >200%)	Cc1nc(NC(=O)c2cccc3[nH]c(-c4ccccc4C(F)(F)F)nc23)sc1C [Compound 344]
A (EC1.5<1.0 uM)	A (Fold activation >200%)	Cc1cc(C)nc(NC(=O)c2cccc3[nH]c(-c4ccccc4C(F)(F)F)nc23)c1 [Compound 345]
A (EC1.5<1.0 uM)	A (Fold activation >200%)	Cc1cnc(NC(=O)c2cccc3[nH]c(-c4ccc(Cl)cc4C(F)(F)F)nc23)s1 [Compound 346]
B (EC1.5 1-25 uM)	A (Fold activation >200%)	O=C(Nc1nccs1)c1cccc2[nH]c(-c3cccc(OCCN4CCOCC4)c3)nc12 [Compound 347]
A (EC1.5<1.0 uM)	A (Fold activation >200%)	O=C(Nc1nccs1)c1cccc2[nH]c(-c3ccc(-c4nnn[nH]4)cc3)nc12 [Compound 348]
A (EC1.5<1.0 uM)	B (Fold Activation <200%)	O=C(Nc1cccnc1)c1cccc2[nH]c(-c3ccc(-c4nnn[nH]4)cc3)nc12 [Compound 349]
B (EC1.5 1-25 uM)	A (Fold activation >200%)	O=C(Nc1cccnc1)c1cccc2[nH]c(-c3cccc(CN4CCOCC4)c3)nc12 [Compound 350]

EC1.5	Fold Act. (percent maximum fold activation)	Compound
B (EC1.5 1-25 uM)	A (Fold activation >200%)	O=C(Nc1nccs1)c1cccc2[nH]c(-c3cccc(CN4CCCC4)c3)nc12 [Compound 351]
B (EC1.5 1-25 uM)	A (Fold activation >200%)	O=C(Nc1cccnc1)c1cccc2[nH]c(-c3cccc(CN4CCCC4)c3)nc12 [Compound 352]
C (EC1.5 >25 uM)	B (Fold Activation <200%)	O=C(NC1CCOC1=O)c1cccc2[nH]c(-c3ccccc3C(F)(F)F)nc12 (stereo not drawn) [Compound 353]
A (EC1.5<1.0 uM)	A (Fold activation >200%)	Cc1cc(NC(=O)c2cccc3[nH]c(-c4ccccc4C(F)(F)F)nc23)n(C)n1 [Compound 354]
B (EC1.5 1-25 uM)	A (Fold activation >200%)	O=C(NC1CCOC1=O)c1cccc2[nH]c(-c3ccc(Cl)cc3C(F)(F)F)nc12 (stereo not drawn) [Compound 355]
A (EC1.5<1.0 uM)	A (Fold activation >200%)	Cc1cc(NC(=O)c2cccc3[nH]c(-c4ccc(Cl)cc4C(F)(F)F)nc23)n(C)n1 [Compound 356]
A (EC1.5<1.0 uM)	A (Fold activation >200%)	Cc1cnc(NC(=O)c2cccc3[nH]c(-c4ccc(F)cc4C(F)(F)F)nc23)s1 [Compound 357]
A (EC1.5<1.0 uM)	A (Fold activation >200%)	Cc1nc(NC(=O)c2cccc3[nH]c(-c4ccc(F)cc4C(F)(F)F)nc23)sc1C [Compound 358]
A (EC1.5<1.0 uM)	A (Fold activation >200%)	Cc1cc(C)nc(NC(=O)c2cccc3[nH]c(-c4ccc(F)cc4C(F)(F)F)nc23)c1 [Compound 359]
A (EC1.5<1.0 uM)	A (Fold activation >200%)	O=C(Nc1nccs1)c1cccc2[nH]c(-c3cccc(-c4nnn[nH]4)c3)nc12 [Compound 360]
A (EC1.5<1.0 uM)	A (Fold activation >200%)	O=C(Nc1ccccn1)c1cccc2[nH]c(-c3cccc(-c4nnn[nH]4)c3)nc12 [Compound 361]
A (EC1.5<1.0 uM)	A (Fold activation >200%)	O=C(Nc1cccnc1)c1cccc2[nH]c(-c3cccc(-c4nnn[nH]4)c3)nc12 [Compound 362]
B (EC1.5 1-25 uM)	A (Fold activation >200%)	O=C(Nc1cccc2[nH]c(-c3ccccc3C(F)(F)F)nc12)c1cscn1 [Compound 363]
B (EC1.5 1-25 uM)	A (Fold activation >200%)	O=C(Nc1cccc2[nH]c(-c3ccccc3C(F)(F)F)nc12)c1ccccn1 [Compound 364]
B (EC1.5 1-25 uM)	A (Fold activation >200%)	O=C(Nc1cccc2[nH]c(-c3ccccc3C(F)(F)F)nc12)c1cccnc1 [Compound 365]
B (EC1.5 1-25 uM)	A (Fold activation >200%)	O=C(Nc1cccc2[nH]c(-c3ccccc3C(F)(F)F)nc12)c1cnccn1 [Compound 366]
B (EC1.5 1-25 uM)	A (Fold activation >200%)	O=C(Nc1cccc2[nH]c(-c3cccc(N4CCOCC4)c3)nc12)c1ccccn1 [Compound 367]
A (EC1.5<1.0 uM)	A (Fold activation >200%)	Cc1nc(-c2ccccc2)c(-c2nc3c(C(=O)Nc4nccs4)cccc3[nH]2)s1 [Compound 368]
